The record followed here is patent publication US8389030B2, “Nematicides from Juglandaceae and methods of use thereof” (Redox Chemicals, Inc., priority 2004, dated 2013).

One assay concerns nematodes in roots. Kind of assay: Orange grove field trial: reduction of nematodes in plant roots vs plants in untreated soil. Format: in vivo. The note with it: clay loam soil, compared to roots of plants in untreated soil, NatureCur applied 3 times 30 days apart at 5000 ppm, the other agents applied once in mid-May. The protocol:
(§1) A field trial was conducted on an orange grove, comparing the effect of the composition described in Example 1 (under its trade name, NatureCur™) against two widely used, commercially available nematicides, an emusifiable concentrate of 1,3 dichloropropene which can be applied to the soil after plants are planted (called a “post-plant” application) (Dow AgroSciences LLC, Indianapolis, Ind.), shown on the accompanying charts as “Cordon,” and imidacloprid, an insecticide marketed under the name Admire® (Bayer CropScience LP, Research Triangle Park, N.C.). For the soil treated with Cordon and the soil treated with Admire®, single applications of the agents were made in mid-May. The product NatureCur™ was applied in once in mid-May, once 30 days later in mid-June, and once again 30 days later in mid July, each time at a concentration of 5000 ppm. The soil in the grove was a clay loam, a very dense, heavy soil in which it is difficult to get agents to travel. Thus, the soil in this grove provided a particularly difficult test condition for NatureCur™, which has to infiltrate through the soil in water.
The percentage of reduction in number of nematodes in roots of plants whose soil was treated with the three agents compared to roots of plants in untreated soil is shown in Table 2 and FIG. 2.

For another assay, the system named is nematodes in soil. The assay is described as follows: Orange grove field trial: reduction of nematodes in soil vs untreated soil. Format: in vivo. As to conditions: clay loam soil, compared to untreated soil, NatureCur applied 3 times 30 days apart at 5000 ppm, the other agents applied once in mid-May. The method, then:
as §1
Samples were taken of the soil around the plants and of the roots. The percentage of reduction in number of nematodes in soil treated with the three agents compared to untreated soil is shown in Table 1 and FIG. 1.

On to `ClC=CCCl` [1,3 dichloropropene], for which the “Percent reduction in nematodes in roots” value in the assay on nematodes in roots is reported as 61%. Also, the “Percent reduction in nematodes in soil” value in the assay with nematodes in soil is given as 58%.
Taken in the same sequence, the figures for `O=[N+]([O-])NC1=NCCN1Cc1ccc(Cl)nc1` [Imidacloprid, imidacloprid] were 46% and 32%.
